According to patent US20100119599A1 (ARCHER PHARMACEUTICALS, INC., priority 2006, published 2010):

What was measured:
Aβ1-40 = experiment: Measurement of Aβ1-40 in culture medium of 7W WT APP751 CHO cells by ELISA; format: cell-based, Chinese hamster; settings: for activity at 5 µM: Cricetulus griseus, Table 1, 5 μM test compound, CHO cells stably transfected with human APP751, culture medium, ELISA, control DMSO, 0 = no detectable amount; for Aβ1-40 (% of control): CHO cells that overexpress APP751, zero = below the detection limit of the assay
Aβ1-42 = experiment: Measurement of Aβ1-42 in culture medium of 7W WT APP751 CHO cells by ELISA; format: cell-based, Chinese hamster; settings: for activity at 5 µM: Cricetulus griseus, Table 1, 5 μM test compound, CHO cells stably transfected with human APP751, culture medium, ELISA, control DMSO, 0 = no detectable amount, read-out: Aβ1-42 (% of control); for Aβ1-42 (% of control): CHO cells that overexpress APP751, zero = below the detection limit of the assay
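Note: 5 µM test compound but RI-coded compounds at 10 µM for 24 hours.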

Row | Structure (SMILES) | activity at 5 µM (Aβ1-40) | activity at 5 µM (Aβ1-42) | Aβ1-40 (% of control) (Aβ1-40) | Aβ1-42 (% of control) (Aβ1-42)
1 | CCc1ccc(C2C(C(=O)OC3CCCCC3)=C(C)NC3=C2C(=O)CC(c2ccccc2)C3)cc1 (stereo not drawn) [ST013389, cyclohexyl 4-(4-ethylphenyl)-2-methyl-5-oxo-7-phenyl-1,4,6,7,8-pentahydroquinoline-3-carboxylate] | 37.4% | 94.4% |  | 
2 | CCc1ccc(C2C(C(=O)OC(C)CC)=C(C)NC3=C2C(=O)CC(c2ccc(OC)cc2)C3)cc1 (stereo not drawn) [ST017092, methylpropyl 4-(4-ethylphenyl)-7-(4-methoxyphenyl)-2-methyl-5-oxo-1,4,6,7,8-pentahydroquinoline-3-carboxylate] | 41.3% | 30.9% |  | 
3 | COC(=O)C1=C(C)NC2=C(C(=O)CCC2)C1c1cc(F)ccc1F (stereo not drawn) [ST052368, methyl 4-(2,5-difluorophenyl)-2-methyl-5-oxo-1,4,6,7,8-pentahydroquinoline-3-carboxylate] | 66.3% | 74.2% |  | 
4 | COCCOC(=O)C1=C(C)NC2=C(C(=O)CC(C)(C)C2)C1c1cc(OC)c(OC)c(OC)c1 (stereo not drawn) [ST013356, 2-methoxyethyl 2,7,7-trimethyl-5-oxo-4-(3,4,5-trimethoxyphenyl)-1,4,6,7,8-pentahydroquinoline-3-carboxylate] | 62.7% | 82.5% |  | 
5 | CC1=C(C(=O)Nc2ccccc2C)C(c2cccs2)C(C#N)=C(SCC(=O)Nc2ccc(C)c(Cl)c2)N1 (stereo not drawn) [ST050840, N-(3-chloro-4-methylphenyl)-2-{3-cyano-6-methyl-5-[N-(2-methylphenyl)carbamoyl]-4-(2-thienyl)(2-1,4-dihydropyridylthio)}acetamide] |  |  | 52.3 % of control | 38.84 % of control
6 | CC1=C(C(=O)Nc2ccccc2)C(c2cccs2)C(C#N)=C(SCC(=O)Nc2ccc(C)c(C)c2)N1 (stereo not drawn) [ST041706, N-(3,4-dimethylphenyl)-2-[3-cyano-6-methyl-5-(N-phenylcarbamoyl)-4-(2-thienyl) (2-1,4-dihydropyridylthio)]acetamide] |  |  | 68.73 % of control | 50.13 % of control
7 | CCOC(=O)C1=C(C)NC2=C(C(=O)CCC2)C1c1ccc(Cl)cc1Cl (stereo not drawn) [ST024444, ethyl 4-(2,4-dichlorophenyl)-2-methyl-5-oxo-1,4,6,7,8-pentahydroquinoline-3-carboxylate] | 37.4% | 16.6% |  | 
8 | COC(=O)C1=C(C)NC2=C(C(=O)CC(c3ccc(Cl)cc3)C2)C1c1ccccc1 (stereo not drawn) [ST015218, methyl 7-(4-chlorophenyl)-2-methyl-5-oxo-4-phenyl-1,4,6,7,8-pentahydroquinoline-3-carboxylate] | 59.3% | 0% |  | 
9 | CCC(C)c1ccccc1NC(=O)CSC1=C(C#N)C(c2ccsc2)C(C(=O)Nc2ccccc2)=C(C)N1 (stereo not drawn) [RI_68] |  |  | 74.6 % of control | 100 % of control
10 | CCN(CC)c1ccc(C2C(C(=O)OC)=C(C)NC3=C2C(=O)CC(c2ccccc2Cl)C3)cc1 (stereo not drawn) [ST015182, methyl 4-[4-(diethylamino)phenyl]-7-(2-chlorophenyl)-2-methyl-5-oxo-1,4,6,7,8-pentahydroquinoline-3-carboxylate] | 39.9% | 61.4% |  | 
11 | CCOC(=O)C1=C(C)NC(C)=C(C(=O)OC)C1c1ccc(Br)cc1 (stereo not drawn) [ST063245, ethyl 4-(4-bromophenyl)-5-(methoxycarbonyl)-2,6-dimethyl-1,4-dihydropyridine-3-carboxylate] |  |  | 8.423 % of control | 0 % of control
12 | CCCCCOC(=O)C1=C(C)NC2=C(C(=O)CC(C)(C)C2)C1c1ccccc1Br (stereo not drawn) [ST216079, pentyl 4-(2-bromophenyl)-2,7,7-trimethyl-5-oxo-1,4,6,7,8-pentahydroquinoline-3-carboxylate] | 25.8% | 20.5% |  | 
